Experimental data: patent US20030215564A1, “Method and apparatus for coating an endoprosthesis” (priority 2002, published 2003)

Assays:
Assay type in all cases: physicochemical
[1] = Effect of crimping on amount of paclitaxel on spin-coated stents (HPLC)
Text: Each stent was then removed from the reservoir, shaken briskly, and allowed to dry.

[2] = Amount of paclitaxel deposited on Palmaz-Schatz stents, manual coating method (HPLC)
Protocol: In this example, Palmaz-Schatz stents were coated with paclitaxel using a manual method. The amount of paclitaxel deposited was then determined.
Each stent was then removed from the reservoir, shaken briskly, and allowed to dry. […] The solvent system consisted of 45% acetonitrile and 55% water delivered by a pair of Gilson 305/306 pumps with a flow rate of 1.5 ml/minute.

[3] = Effect of crimping on amount of paclitaxel on manually coated stents (HPLC); conditions: manual coating, after crimping
Text: Prior to being deployed inside a blood vessel, some vascular stents must be crimped onto a balloon-tipped catheter. Once the stent is positioned on the catheter, the catheter-stent assembly is advanced in the blood vessel to the site of obstruction. The balloon is then expanded, which deploys the stent in its proper position.
Since the manual coating method leads to uneven, fragile coating (see Examples 1-3), it seemed likely that the process of crimping would exacerbate the problem of flaking and drug loss. To demontstrate this problem, the amount of paclitaxel on stents before and after crimping was determined. […] Each stent was then removed from the reservoir, shaken briskly, and allowed to dry.

[4] = Effect of stent expansion on paclitaxel content of spin-coated stents (HPLC); conditions: spin-coated 12,000 RPM two seconds, 44 mg/ml ethanolic paclitaxel
Text: After a stent is crimped onto a catheter as in example 4, it is ready for deployment in the body. The stent is properly positioned with a catheter, and is then expanded, for example by inflation of a balloon tip around which the stent is mounted. The balloon inflation expands the stent and forces it into proper position in the wall of the hollow organ. This has an additional physical impact on the stent, and has the potential to further degrade its coating.

CC(=O)O[C@H]1C(=O)[C@@]2(C)[C@H]([C@H](OC(=O)c3ccccc3)[C@]3(O)C[C@H](OC(=O)[C@H](O)[C@@H](NC(=O)c4ccccc4)c4ccccc4)C(C)=C1C3(C)C)[C@]1(OC(C)=O)CO[C@@H]1C[C@@H]2O [Paclitaxel, paclitaxel]
Amount of drug—crimped (mean ± standard deviation) ([1]; paclitaxel 18 mg/ml): 6.4 ± 2.1 µg
Amount of drug—crimped (mean ± standard deviation) ([1]; paclitaxel 28 mg/ml): 12.6 ± 1.2 µg
Amount of drug deposited (mean ± standard deviation) ([2]; paclitaxel 13 mg/ml in 95% ethanol): 19.5 ± 7.7 µg
Amount of drug deposited (mean ± standard deviation) ([2]; paclitaxel 27 mg/ml in 95% ethanol): 59.8 ± 17.6 µg
Amount of drug deposited (mean ± standard deviation) ([2]; paclitaxel 37 mg/ml in 95% ethanol): 80.4 ± 27.7 µg
Amount of drug deposited (mean ± standard deviation) ([2]; paclitaxel 42 mg/ml in 95% ethanol): 141.3 ± 43.0 µg
Amount of drug deposited (mean ± standard deviation) ([2]; paclitaxel 66 mg/ml in 95% ethanol): 198.3 ± 72.0 µg
Amount of drug—crimped (mean ± standard deviation) ([3]; paclitaxel 37 mg/ml): 57.9 ± 33.0 µg
Amount of drug—crimped (mean ± standard deviation) ([3]; paclitaxel 42 mg/ml): 127.1 ± 34.6 µg
Amount of drug—crimped (mean ± standard deviation) ([3]; paclitaxel 66 mg/ml): 106.3 ± 53.8 µg
paclitaxel amount, expanded stent ([4]; crimp-mounted, expanded in water): 26.9 µg
mean paclitaxel amount, unexpanded stents ([4]; unexpanded): 32.8±5.9 μg/stent
